These results are taken from PMC12474366, “Metabolic Profiling, Tissue Distribution, and Tolerance Assessment of Bopu Powder in Laying Hens Following Long-Term Dietary Administration” (Veterinary Sciences, 2025).

Several values for one entry are separate records, joined by “and”; a condition that tells them apart may be missing. Identical values can stand only once. Like-named read-outs stand apart in the source and are kept apart here.

The conditions of series [1]: porcine liver S9 fractions; cited from earlier work.
For series [2] the following is noted: cited from earlier work.
A short description of series [3]: Metabolite identification in plasma and feces after intravenous PRO or ALL (LC-Q-TOF-MS).
Procedure: (§1) Nine hens were allocated to the metabolic study. These birds were randomly divided into three groups (n = 3 per group): the blank control group, the PRO group, and the ALL group.
(§2) Plasma: Blood samples were collected from the subcutaneous ulnar vein at 5, 10, 20, 30, 60, and 120 min post-administration. Samples were centrifuged at 4 °C and 3200× g for 10 min. The supernatant (plasma) was collected and stored at −80 °C for subsequent metabolite analysis.
(§3) Feces: Feces were collected over the intervals 0–6 h, 6–12 h, 12–24 h, and 24–48 h following intravenous administration. All fecal samples were immediately stored at −80 °C.
(§4) Plasma: Plasma samples stored at −80 °C were thawed at room temperature. A pooled plasma sample was prepared by combining equal volumes of plasma from each designated collection timepoint. A 200 μL aliquot of this pooled plasma was precisely transferred into a 1.5 mL microcentrifuge tube. Subsequently, 800 μL of acetonitrile was added to precipitate proteins, and the mixture was vortex-mixed vigorously for 2 min. Following protein precipitation, the tube was sealed and sonicated for 20 min. The sample was then centrifuged at 12,000× g for 10 min. The resulting supernatant was carefully collected and evaporated to dryness under a gentle stream of nitrogen at room temperature. The dried residue was reconstituted in 200 μL of acetonitrile, vortex-mixed for 2 min, and centrifuged again at 12,000× g for 5 min. Finally, the supernatant was filtered through a 0.22 μm organic membrane filter prior to LC-MS/MS analysis.
(§5) Feces: Fecal samples stored at −80 °C were thawed at room temperature and homogenized. A 2.00 g aliquot of the homogenized feces was accurately weighed into a 50 mL centrifuge tube. Ten milliliters of acetonitrile, serving as the extraction solvent, was added to the sample, which was then vortex-mixed for 5 min. The tube was sealed and subjected to sonication for 20 min.
A short description of series [4]: Residues of PRO and ALL in laying hens' tissues and eggs after 56-day dietary Bopu Powder (LC-QQQ-MS). Particulars: mean ± sd; for concentration at 56 days: female, Roman Gray, chicken (laying hens), in vivo, n = 6, LOD 1 ng/g wet weight.
Procedure: Throughout the experimental period, the hens were housed in cages under standard laboratory conditions, with ad libitum access to feed and water. Following a 7-day acclimatization period, standardized feeding regimens and routine health management procedures, including biosecurity protocols, were implemented. […] Three experimental groups were established: CN (control, no additive), BP (50 mg/kg additive), and BPX (500 mg/kg additive). The study employed a randomized design with 6 replicates per group and 18 hens per replicate. The feeding trial duration was 56 days.
Additionally, at the end of week 8, from each replicate group, one hen was randomly selected. A 10 mL blood sample was collected from the subcutaneous ulnar vein; 5 mL was transferred into an EDTA-K2 anticoagulant tube, gently mixed, and centrifuged at 3000× g for 10 min. The separated plasma was transferred into EP tubes (Eppendorf tubes) and stored at −20 °C for residue analysis.
Eggs: During weeks 4 and 8 of the trial, two eggs per replicate group, approximating the mean egg weight, were collected and stored at 4 °C until analysis.
Segments of jejunum, ileum, liver, ovary, oviduct, uterus, pectoral muscle, thigh muscle, gizzard, abdominal fat, and subcutaneous fat were individually wrapped in aluminum foil, flash-frozen in liquid nitrogen, and stored at −80 °C pending analysis.
Eggs: Two grams of homogenized whole egg liquid was transferred into a 50 mL centrifuge tube containing homogenization beads. Twenty microliters of the 1 mg/L internal standard (IS) working solution was precisely added, followed by vortex mixing for 30 s. Subsequently, 10 mL of acetonitrile was added and the mixture was vortex-mixed for 5 min to facilitate extraction. The sample was then centrifuged at 8000× g for 5 min. Five milliliters of the resulting supernatant was transferred to a ten-milliliter centrifuge tube, combined with three milliliters of n-hexane, and vortex-mixed for 1 min. After phase separation, the upper n-hexane layer was carefully removed using a rubber-bulb pipette. Then, 1 mL of the lower aqueous acetonitrile phase was collected, evaporated to dryness under a nitrogen stream, and reconstituted in 0.5 mL of acetonitrile with 30 s of vortex mixing. The final extract was filtered through a 0.22 μm organic solvent-compatible membrane prior to LC-MS/MS analysis. Only two quality control (QC) measures were implemented: parallel duplicate samples, and blank/carryover checks.
Tissues: Tissue samples stored at −80 °C were thawed to room temperature. Approximately 2 g of tissue was weighed into a 50 mL screw-cap centrifuge tube. Twenty microliters of freshly prepared 20 mg·L^−1 IS solution and 1 mL of physiological saline were added.
For series [5] the following is noted: rat liver S9 fractions; cited from earlier work.
On the set-up of series [6]: method as in doi:10.19378/j.issn.1003-9783.2020.12.010. The settings on record: rats, oral administration of ALL; cited from earlier work.
For series [7] the following is noted: cited from earlier work. This is another data set of the same source.
Details of series [8]: method as in PMID 39805195. Particulars: broiler hepatic microsomes, stable isotope tracing; cited from earlier work.
The test system of series [9] is carbon tetrachloride, acetaminophen, and simvastatin-induced hepatotoxicity. Also noted: method as in PMID 9782072. The settings on record: PRO 11–22 mg/kg body weight; cited from earlier work.
For series [10] the following is noted: in vivo, iv, 1 mg/kg.
Procedure: as §1, §2, §3, §4, §5
The conditions of series [11]: rat, in vivo; cited from earlier work.
Where [12] appears, read: BPX group: 500 mg/kg Bopu Powder in diet, 56 days, n = 6, LOD 1 ng/g wet weight.

On to `COc1ccc2c(c1OC)CN(C)CCc1cc3c(cc1C(=O)C2)OCO3` [ALL, allocryptopine], for which the figures for the “number of metabolites detected” value in series [1] and in series [5] were “four” and “eight”, respectively. Also, the “residues in urine, feces, plasma, and various tissues” value in series [2] (rats, following ALL administration) is less than 3 ng/g. Also, the “number of metabolites detected in pooled plasma” value in [3] (intravenous 1 mg/kg bw, pooled plasma 5 to 120 min post-administration) is “seven”. In series [3] (intravenous 1 mg/kg·bw, blood 5–120 min, feces 48 h collection), the “number of metabolites identified in plasma and feces” value was 9. Further, the residues in kidney in series [4] (BP group: 50 mg/kg Bopu Powder in diet, 56 days, n = 6, LOD 1 ng/g wet weight) was 6.59 ± 4.61 ng/g; in series [4] (setting [12]) it was 7.92 ± 4.12 ng/g. Moreover, the residues in eggs in [4] (setting [12]) is 12.29 ng/g and 12.29 ± 4.69 ng/g. Moreover, the residues in liver in series [4] (setting [12]) was 56.14 ± 9.39 ng/g. Further, the concentration at 56 days turned out to be 6.59 ng/g in series [4] (50 mg/kg, residues in kidney, BP group: 50 mg/kg Bopu Powder in diet); 7.92 ng/g in series [4] (500 mg/kg, residues in kidney, BPX group: 500 mg/kg Bopu Powder in diet); 56.1 ng/g in series [4] (500 mg/kg, residues in liver, BPX group: 500 mg/kg Bopu Powder in diet). The “number of metabolites identified, including isomers” value in series [6] is reported as 25. Also, the “residues in eggs throughout” value in [7] (400 mg/kg feed Bopu Powder, 7 days) is given as “undetectable”. For the same compound, the “residual levels 1 day after withdrawal” value in [7] (2000 mg/kg feed Bopu Powder, 7 days) was 8.61 µg/kg. Also, the “residues 7 days post-withdrawal” value in [7] (2000 mg/kg feed Bopu Powder) is reported as “residues persisted”. In series [8], the “number of key metabolites identified” value is “five”.
Regarding protopine, in series [2] (rat, in vivo), the “highest residual level, liver at 48 h” value is given as 20.64 ng/g; the “highest residual level, spleen at 24 h” value is recorded as 44.04 ng/g; the “highest residue level, liver at 48 h (second statement)” value is given as 61.8 ng/g; the “residue levels in other tissues (second statement)” value was “below 6.5 ng/g”. In series [9], the hepatoprotective effect entry was “effectively counteracts carbon tetrachloride, acetaminophen, and simvastatin-induced hepatotoxicity”. Further, in series [10], the “number of metabolites detected in fecal samples” value is “Eleven”; the “number of metabolites detected in pooled plasma” value is “two”; the “number of metabolites identified in plasma and feces” value came out at 12. Besides, the “time until concentrations fell below LOQ (10 ng/mL)” value in series [11] is no more than 8 h.
